PMC10628858, “Investigation of new ferrocenyl-artesunate derivatives as antiparasitics” (Dalton Transactions (Cambridge, England : 2003), 2023)
Where two headings read alike, the source gives them in different places.

How the values were obtained:
[1] = test system: PNT1A cells; assay: MTT cell viability assay, PNT1A; format: cell-based, human; settings: 48 h
Protocol: (§1) To assess the cytotoxicity of the four compounds a MTT cell viability assay using human embryonic kidney (HEK293) and human prostatic (PNT1A) cell lines were performed. […] The long chain compounds C1 and C3 were also shown to be non-cytotoxic towards the HEK293 cell line.
(§2) The immortalised human prostatic epithelial cell line, PNT1A (Sigma Aldrich, 95012614) was cultured in RPMI-1640 containing 10% foetal calf serum (Life Technologies, South Africa). The human embryonic kidney cell line HEK293 (ATCC) was cultured in DMEM (Life Technologies, South Africa). Both cell lines were cultured at 37 °C under 5% CO2 with 1% penicillin and streptomycin. Cancer cell cytotoxicity was evaluated using the MTT viability assay according to our previous method.[49] Briefly, cells were seeded at a density of 3 × 10^3 cells per well in 96-well plates and allowed to settle overnight. A 100 mM stock of C1/C2 and a 50 mM stock solution of C3/C4 in DMSO was prepared from which dilutions were made. The compound was then added to the cells in triplicate to obtain the indicated concentrations and 0.1% DMSO. Controls included cells treated with […] DMSO alone. After 48 h, 10 μL of 5 mg mL^−1 MTT (3-(4,5-dimethylthiazol-2-yl)-2,5-diphenyltetrazolium bromide) (Sigma-Aldrich) was added, and incubated with the cells for 4 h, followed by addition of 100 μL 10% SLS, 0.01 M HCL. The plates were read at 595 nm on a Multiscan FC plate reader (Thermo Scientific) and the data was fitted to a variable slope dose–response curve using Graphpad prism v6 to obtain the cytotoxicity IC50. The assay was repeated independently three times where inhibition was observed.

[2] = test system: T. gondii (ΔKu80::mNeonGreen); assay: T. gondii growth inhibition assay (mNeonGreen fluorescence); format: cell-based, Toxoplasma gondii; settings: three independent experiments in triplicate, ± SEM
Protocol: […]. The rate of hydrolysis of C2 and C4 is closely correlated to the activity seen against T. gondii, such that the more readily the complex separates into its constituents, parts the better the overall activity.
To further investigate whether the accumulation of ROS was implicated in the MoA, the growth inhibition studies were repeated in the presence of the ROS scavenger N-acetyl cysteine (NAC) (Table 5).
Growth inhibition assays were performed in black, clear-bottomed 96 well plates preseeded with Human foreskin fibroblasts (HFFs) as described previously.[48] ΔKu80:mNeonGreen T. gondii were counted using a hemeocytometer and media from the host-cell seeded plate was aspirated and replaced with either 200 μL of D3 or 200 μL of media + 5000 parasites per well. Infected cells were incubated for 2 hours at 37 °C with 5% CO2 to allow for invasion. Following this, the media was removed and replaced with 100 μL fresh media. 100 μL of media containing 100 μM of the indicated drug in sterile DMSO was added and serially diluted. The parasites were then incubated for four days at 37 °C with 5% CO2 then flourescense read using the PHERAstar microplate reader. After removal of background, fluorescence values were normalised to untreated and plotted. Data analysis and non-linear regression was performed in Prism.

[3] = test system: HEK293 cells; assay: MTT cell viability assay, HEK293; format: cell-based, human; settings: for IC50: 48 h
Protocol: as §1, §2

[4] = test system: T. gondii; assay: Determination of intracellular ROS levels with CellROX by flow cytometry; format: cell-based, Toxoplasma gondii; settings: 5 μM, 6 hours, 50 000 parasites, vs untreated
Protocol: Since both ferrocene and artesunate are able to generate ROS, we attempted to quantify the intracellular ROS levels in the parasite using CellROX, a compound which fluoresces in the presence of ROS. Treatment with artesunate was included as positive control as previous studies have linked artesunate treatment to ROS accumulation.[44] The parasites were treated with 5 μM of complexes C1, C3 and C4, and incubated for 6 hours. […] Since T. gondii rely predominately on heme biosynthesis as opposed to incorporation of heme from host hemoglobin, the concentration of iron present in the parasite is lower.[45] But, by incorporating an iron center in the molecule the slower activation may be circumvented leading to quicker cell death and a decreased CellROX reading.
Fig. 5 CellROX fluorescence quantified by flow cytometry from 50 000 parasites. T. gondii were untreated (grey) or treated for 6 hours with 5 μM compounds (blue) or artesunate (red) as a positive control.
Intracellular parasites were treated with 5 μM of the drug and incubated at 37 °C with 5% CO2 for either 18 hours or 6 hours. The parasites were released from host cells by scraping and syringing followed by passing through 3 μm filters to remove host-cell debris. The parasites were spun down at 6000 RPM for 10 minutes and resuspended in 500 μL PBS. 100 μL of the parasite suspension was placed in a FACS tube and a stock solution of CellROX dye in PBS (1 : 125 dilution) was added to this. This was then incubated in the dark at 37 °C for 1 hour and then read using a BD Celesta. Parasites were gated on forward and side scatter and on mNeonGreen fluorescence and histograms of Cy5 signal presented. Data analysis was performed using Flowjo.

[5] = Aqueous stability (hydrolysis) by UV-Vis kinetic scan in 10% MeOH (aq); format: physicochemical
Protocol: Since biological systems are comprised of water, the behavior and stability of a drug in aqueous media is important. To determine the stability, each complex was dissolved in MeOH and then diluted to 10% MeOH (aq). The solutions were then monitored by UV-Vis spectroscopy using a kinetic scan in the range 190–1100 nm over 1 hour. […] Hydrolysis was also supported by RP-HPLC in which new peaks emerged corresponding to the starting ferrocene precursors, F2 and F4. […] […] The major difference being between C1/C2 and C3/C4 is the nature of the linkage either being an ester or an amide bond. It is expected that the hydrolysis of C2 would occur quicker due to the more labile nature of the ester bond.
UV-Vis studies were performed by dissolving each complex in methanol to a concentration of 1 mM. This was then diluted using distilled water in a 10% methanol/water mixture giving a final concentration of 100 μM. The complexes were then monitored using a kinetic scan between the range 190–1100 nm scanning each minute over the course of one hour. […]

[6] = four days, in HFF host cells, read-out: IC50 against T. gondii
[7] = with 5 mM NAC (ROS scavenger), read-out: IC50 + NAC against T. gondii
[8] = change in absorbance at 254 nm over one hour, ExpDec1 fit
[9] = no curve could be fitted within one hour

SMILES: CC1CCC2C(C)C(OC(=O)CCC(=O)NC[c-]3cccc3)OC3OC4(C)CCC1C32OO4.[Fe+2].c1cc[cH-]c1 (stereo not drawn) [Compound C4]
- IC50 [1]: > 50000 nM
- IC50 [2, 6]: 600 ± 35 nM
- IC50 [2, 7]: 1200 ± 179 nM
- IC50 [3]: 36000 ± 2700 nM
- Change in CellROX signal (intracellular ROS) [4]: no change in CellROX signal
- Half-life [5, 8]: 0.155 ± 0.0035 h
- Rate constant (hydrolysis) [5, 8]: 0.074 ± 0.0016 min⁻¹

SMILES: CC1CCC2C(C)C(OC(=O)CCC(=O)NCCNC(=O)[c-]3cccc3)OC3OC4(C)CCC1C32OO4.[Fe+2].c1cc[cH-]c1 (stereo not drawn) [Compound C3]
- IC50 [1]: > 50000 nM
- IC50 [2, 6]: 1200 ± 64 nM
- IC50 [2, 7]: 1500 ± 140 nM
- Cytotoxicity towards HEK293 [3]: non-cytotoxic
- IC50 [3]: > 50000 nM
- Change in CellROX signal (intracellular ROS) [4]: increase in intracellular ROS
- Half-life [5, 9]: >1 h

SMILES: CC1CCC2C(C)C(OC(=O)CCC(=O)OCCNC(=O)[c-]3cccc3)OC3OC4(C)CCC1C32OO4.[Fe+2].c1cc[cH-]c1 (stereo not drawn) [Compound C1]
- IC50 [1]: > 100000 nM
- IC50 [2, 6]: 680 ± 31 nM
- IC50 [2, 7]: 830 ± 130 nM
- Cytotoxicity towards HEK293 [3]: non-cytotoxic
- IC50 [3]: > 100000 nM
- Change in CellROX signal (intracellular ROS) [4]: no change in CellROX signal
- Half-life [5, 9]: >1 h
